Read-outs that look alike come from different tables or passages of the source.
Assays:
[1] = target: T1, dopamine (DA) transporter (DAT) (Rattus norvegicus, UniProt P23977); experiment: Competitive radioligand binding, [3H]WIN35428, rat brain membranes
T1 construct: Rat brains were dissected and tissue was homogenized in cold lysis buffer; from tissue; host or cells: rat brain membrane preparation
Description: All studies were performed at Gifford Bioscience, Ltd. (Birmingham, UK) according to standard protocols.
Radioligands used were: [^3H] Citalopram (PerkinElmer NET1039250UC); [^3H] Nisoxetine (PerkinElmer NET1084250UC); [^3H] WIN35428 (PerkinElmer NET1033250UC). Nonspecific compounds used were Citalopram (Tocris Bioscience 1,427); JHW007 (Tocris Bioscience 4,351); Nomifensine (Abcam ab146004). […] Rat brains were dissected and tissue was homogenized in cold lysis buffer, centrifuged at 100xg for 2 min and the supernatant was placed in a fresh tube. Supernatant was centrifuged at 13,000 × g for 10 min at 4°C to re-pellet the cell lysate. The pellet was resuspended in fresh wash buffer (50 mM Tris–HCl; 5 mM MgCl2; 5 mM EDTA) and centrifuged a third time. The pellet was then resuspended in wash buffer containing 10% sucrose as a cryoprotectant, divided into aliquots (0.3 mL) and stored at −80°C. A sample of the homogenate was analyzed for protein content using the Sigma® BCA assay. On the day of the assay, the membrane preparation was thawed and the pellet resuspended in final assay buffer. […] Filters were then dried under a warm air stream, sealed in polyethylene, scintillation cocktail added, and the radioactivity counted in a Wallac® TriLux 1,450 MicroBeta counter. […] Ki was subsequently calculated using the Cheng-Prusoff equation.

[2] = target: T2, 5HT reuptake (SERT), rat brain synaptosomes (Rattus norvegicus, UniProt P31652); experiment: Uptake inhibition assay, [3H]5-HT, rat brain synaptosomes; assay type: biochemical
T2 construct: Rat brain synaptosomes were isolated from Sprague Dawley rats (200-250 g); from tissue; host or cells: rat brain synaptosomes (Sprague Dawley)

[3] = target: T3, 5HT release (SERT), rat brain synaptosomes (Rattus norvegicus, UniProt P31652); experiment: Release assay, [3H]5-HT, superfused rat brain synaptosomes; assay type: biochemical
T3 construct: Rat brain synaptosomes were isolated from Sprague Dawley rats (200-250 g); from tissue; host or cells: rat brain synaptosomes (Sprague Dawley)
Description: (§1) Test compounds and synaptosomes were prepared as described for uptake inhibition assays. Synaptosomes treated with [^3H] 5-HT, [^3H] DA or [^3H] NE were loaded onto filter chambers containing GF/C filters and placed in a superfusion system. Oxygenated Krebs buffer was perfused through the chambers at a rate of 1.5 mL/min at 35°C using either an 8-channel or a 12-channel peristaltic pump. Trapped air bubbles were removed from the filters prior to collecting fractions to ensure an even flow over the synaptosomal bed. After a superfusion period of 45 min, 2 basal fractions were collected followed by 6 fractions following the addition of the test drug. […] After the addition of scintillation cocktail, radioactivity was counted using a Wallac® TriLux 1,450 MicroBeta counter. […] Scintillation cocktail was added, and the filters counted to determine residual radioactivity. Drug-evoked release of neurotransmitter was calculated by subtracting the average of the two basal fractions (collected prior to the drug addition), from the four fractions collected in the presence of drug. The drug-evoked release was then expressed as a percentage of the basal release. Potassium-evoked release was calculated by subtracting the average of two fractions collected prior to the addition of high KCl buffer from that in the two fractions following addition of high KCl buffer. […]

[4] = target: T4, DA release (DAT), rat brain synaptosomes (Rattus norvegicus, UniProt P23977); experiment: Release assay, [3H]DA, superfused rat brain synaptosomes; assay type: biochemical
T4 construct: Rat brain synaptosomes were isolated from Sprague Dawley rats (200-250 g); from tissue; host or cells: rat brain synaptosomes (Sprague Dawley)
Description: as §1

PTSD patients (CAPS-5) = conditions: open-label, 14 PTSD patients; ref Jones et al., 2023; cited from earlier work
[5] = target: T5, DA uptake (DAT), rat brain synaptosomes (Rattus norvegicus, UniProt P23977); experiment: Uptake inhibition assay, [3H]DA, rat brain synaptosomes; assay type: biochemical
T5 construct: Rat brain synaptosomes were isolated from Sprague Dawley rats (200-250 g); from tissue; host or cells: rat brain synaptosomes (Sprague Dawley)

[6] = target: T6, NE uptake (NET), rat brain synaptosomes (Rattus norvegicus, UniProt Q63380); experiment: Uptake inhibition assay, [3H]NE, rat brain synaptosomes; assay type: biochemical
T6 construct: Rat brain synaptosomes were isolated from Sprague Dawley rats (200-250 g); from tissue; host or cells: rat brain synaptosomes (Sprague Dawley)

[7] = target: T7, NE release (NET), rat brain synaptosomes (Rattus norvegicus, UniProt Q63380); experiment: Release assay, [3H]NE, superfused rat brain synaptosomes; assay type: biochemical
T7 construct: Rat brain synaptosomes were isolated from Sprague Dawley rats (200-250 g); from tissue; host or cells: rat brain synaptosomes (Sprague Dawley)
Description: as §1

[8] = test system: immobility in the forced swim test; parameters: method as in Warner-Schmidt et al., 2022; conditions: rats, ref Warner-Schmidt et al., 2022, cited from earlier work

T4 sequence (P23977 whole entry, the tested form may be a part): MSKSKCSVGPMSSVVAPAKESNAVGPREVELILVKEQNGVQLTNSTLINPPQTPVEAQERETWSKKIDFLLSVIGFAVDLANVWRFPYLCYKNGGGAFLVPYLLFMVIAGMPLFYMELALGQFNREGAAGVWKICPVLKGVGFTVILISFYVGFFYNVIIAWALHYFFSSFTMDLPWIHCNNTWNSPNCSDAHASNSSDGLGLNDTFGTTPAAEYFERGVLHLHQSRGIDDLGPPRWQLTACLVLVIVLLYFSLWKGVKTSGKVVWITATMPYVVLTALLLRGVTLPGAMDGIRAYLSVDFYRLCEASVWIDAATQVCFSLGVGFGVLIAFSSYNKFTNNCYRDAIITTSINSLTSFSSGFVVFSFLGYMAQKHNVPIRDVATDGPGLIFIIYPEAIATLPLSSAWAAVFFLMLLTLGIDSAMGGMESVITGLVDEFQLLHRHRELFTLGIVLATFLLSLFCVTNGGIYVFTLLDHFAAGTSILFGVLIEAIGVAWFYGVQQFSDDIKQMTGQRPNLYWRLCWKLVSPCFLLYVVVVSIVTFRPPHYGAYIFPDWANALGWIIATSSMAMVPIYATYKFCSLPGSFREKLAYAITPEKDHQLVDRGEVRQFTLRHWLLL
T1 sequence (P23977 whole entry): as the sequence (P23977 whole entry, the tested form may be a part) above
T5 sequence (P23977 whole entry): as the sequence (P23977 whole entry, the tested form may be a part) above
T6 sequence (Q63380 1-617): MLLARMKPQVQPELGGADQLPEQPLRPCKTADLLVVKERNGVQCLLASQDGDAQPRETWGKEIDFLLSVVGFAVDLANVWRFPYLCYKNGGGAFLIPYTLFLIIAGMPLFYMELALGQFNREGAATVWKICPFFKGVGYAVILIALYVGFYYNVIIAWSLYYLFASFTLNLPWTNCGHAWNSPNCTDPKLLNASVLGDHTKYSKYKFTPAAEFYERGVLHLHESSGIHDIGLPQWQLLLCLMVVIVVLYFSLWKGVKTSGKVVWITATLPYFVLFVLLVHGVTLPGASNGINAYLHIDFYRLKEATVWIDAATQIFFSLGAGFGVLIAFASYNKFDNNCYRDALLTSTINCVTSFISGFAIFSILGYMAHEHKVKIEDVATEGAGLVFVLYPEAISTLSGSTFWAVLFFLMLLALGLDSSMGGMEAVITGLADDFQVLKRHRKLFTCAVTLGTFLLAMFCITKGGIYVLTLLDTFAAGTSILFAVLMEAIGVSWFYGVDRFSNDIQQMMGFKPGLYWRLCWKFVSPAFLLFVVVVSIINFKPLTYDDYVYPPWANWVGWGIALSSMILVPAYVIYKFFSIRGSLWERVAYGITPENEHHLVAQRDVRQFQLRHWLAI
T7 sequence (Q63380 1-617): as above
T3 sequence (P31652 whole entry, the tested form may be a part): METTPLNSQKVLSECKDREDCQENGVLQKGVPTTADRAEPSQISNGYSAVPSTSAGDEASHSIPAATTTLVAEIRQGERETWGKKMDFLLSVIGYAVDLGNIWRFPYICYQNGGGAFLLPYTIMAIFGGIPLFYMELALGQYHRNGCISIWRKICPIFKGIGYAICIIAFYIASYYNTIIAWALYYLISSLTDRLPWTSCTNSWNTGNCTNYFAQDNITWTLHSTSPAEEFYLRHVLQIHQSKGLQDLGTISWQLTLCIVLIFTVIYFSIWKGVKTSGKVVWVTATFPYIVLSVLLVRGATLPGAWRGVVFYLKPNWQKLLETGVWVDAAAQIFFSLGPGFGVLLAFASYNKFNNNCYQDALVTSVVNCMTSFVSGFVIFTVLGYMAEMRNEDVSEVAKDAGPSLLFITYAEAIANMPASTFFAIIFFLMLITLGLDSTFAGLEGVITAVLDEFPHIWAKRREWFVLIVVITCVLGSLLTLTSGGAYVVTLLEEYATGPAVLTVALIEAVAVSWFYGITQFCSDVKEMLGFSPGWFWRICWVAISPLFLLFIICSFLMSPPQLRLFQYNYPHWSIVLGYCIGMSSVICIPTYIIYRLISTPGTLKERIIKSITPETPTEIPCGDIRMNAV
T2 sequence (P31652 whole entry): as the sequence (P31652 whole entry, the tested form may be a part) above

SMILES	Ki [1]	IC50 [2]	EC50 [3]	EC50 [4]	Amount of DA released compared to MDMA ([4]; rat brain synaptosomes, Figure 1C)	Adverse events (PTSD patients (CAPS-5))	Reduction in CAPS-5 (PTSD patients (CAPS-5))	IC50 [5]	IC50 [6]	EC50 [7]	Reduction in immobility in the forced swim test ([8]; 30 min after a single human equivalent dose of 100–150 mg)	Duration of reduction in immobility post-dose ([8]; single dose)	Ki ([1]; read-out: Ki, DAT, competitive radioligand binding, rat brain membranes, Cheng-Prusoff)
CNC(C)C(=O)c1ccc2c(c1)OCO2 (stereo not shown) [methylone]	5.73 µM	0.43 µM	0.62 µM	4.79 µM	Less DA was released	no significant adverse events	36.2 point	2.3 µM	0.13 µM	0.33 µM	95–98%	at least 72 h	–
CNC(C)Cc1ccc2c(c1)OCO2 (stereo not shown) [MDMA, 3,4-Methylenedioxy methamphetamine, reference compound]	–	–	–	–	–	–	–	–	–	–	–	–	5.11 µM

Source: article PMC10882719 (Frontiers in Neuroscience, 2024)
